{"source": "patent US20210139497A1", "about": "“THIENOCYCLIC COMPOUND AND SYNTHESIS METHOD THEREFOR AND APPLICATION THEREOF” (SHANGHAI YUYAO BIOTECH LTD., priority 2017, published 2021)", "key": {"[1]": {"molecular_target": "T1, human prostaglandin E2 receptor EP1 subtype (Homo sapiens, UniProt P34995)", "T1 construct": "expressed in transfected cells; host or cells: CHO-K1-Gα16", "T1 sequence (P34995 1-402)": "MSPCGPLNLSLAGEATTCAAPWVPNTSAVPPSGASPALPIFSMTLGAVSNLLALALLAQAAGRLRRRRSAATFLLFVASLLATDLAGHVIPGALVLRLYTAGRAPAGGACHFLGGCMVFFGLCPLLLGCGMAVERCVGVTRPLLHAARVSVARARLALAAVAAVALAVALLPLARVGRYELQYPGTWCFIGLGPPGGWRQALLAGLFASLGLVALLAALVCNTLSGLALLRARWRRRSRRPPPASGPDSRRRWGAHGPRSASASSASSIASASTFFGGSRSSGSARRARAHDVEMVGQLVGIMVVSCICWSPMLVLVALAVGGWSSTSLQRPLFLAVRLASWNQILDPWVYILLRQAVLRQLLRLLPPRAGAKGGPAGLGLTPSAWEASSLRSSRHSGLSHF", "assay": "Calcium flux of human prostaglandin E2 receptor EP1 subtype", "type": "cell-based", "settings": "CHO-K1-Gα16 cells overexpressing human EP1, activated by prostaglandin E2; read-out: hEP1 Ca^2+ IC50", "description": "(§1) CHO-K1-Gα16 cells at the logarithmic growth phase were transfected with human prostaglandin E2 Receptor subtypes EP1, EP2 or EP3 overexpressing vector by Lipofectamine 2000, then seeded in a 96-well plate (Falcon, CA) at a density of 20000 cells per 100 μL culture medium for overnight culture. On the second day, every single well were added with 100 μL calcium 5 detection reagents (Molecular Devices) and incubated in incubator at 37° C., 5% CO2 for 45 minutes. The compounds were diluted with HBSS detection buffer, then were added to 96-well plates. After 20 min incubation at room temperature in the dark, prostaglandin E2 at certain concentration was used to activate calcium flux of cells for detection (Flexstation 3, MD, CA).\n(§2) Calculate the IC50 of the compounds of the invention in inhibiting the calcium flux of human EP1, EP2, and EP3 receptor (i.e. the concentration of drugs at which the intracellular Ca^2+ flux being inhibited by half after overexpressing human EP1, EP2, and EP3 receptors in CHO-K1-Gα16 cells). The IC50 of the drugs were calculated using GraphPad Prism 5."}, "[2]": {"molecular_target": "T2, human prostaglandin E2 receptor EP2 subtype (Homo sapiens, UniProt P43116)", "T2 construct": "expressed in transfected cells; host or cells: CHO-K1-Gα16", "T2 sequence (P43116 whole entry)": "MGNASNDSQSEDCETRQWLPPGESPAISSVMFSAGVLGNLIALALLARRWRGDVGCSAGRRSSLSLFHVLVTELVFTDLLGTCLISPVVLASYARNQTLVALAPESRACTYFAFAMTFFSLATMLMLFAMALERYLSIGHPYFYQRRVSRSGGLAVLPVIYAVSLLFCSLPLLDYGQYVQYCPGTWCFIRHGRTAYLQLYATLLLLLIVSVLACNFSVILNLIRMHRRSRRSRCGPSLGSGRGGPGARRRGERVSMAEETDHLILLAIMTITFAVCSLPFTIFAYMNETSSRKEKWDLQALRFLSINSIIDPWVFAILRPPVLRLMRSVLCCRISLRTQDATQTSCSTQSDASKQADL", "assay": "Calcium flux of human prostaglandin E2 receptor EP2 subtype", "type": "cell-based", "settings": "CHO-K1-Gα16 cells overexpressing human EP2, activated by prostaglandin E2; read-out: hEP2 Ca^2+ IC50", "description": "as §1, §2"}, "[3]": {"molecular_target": "T3, human prostaglandin E2 receptor EP3 subtype (Homo sapiens, UniProt P43115)", "T3 construct": "expressed in transfected cells; host or cells: CHO-K1-Gα16", "T3 sequence (P43115 1-390)": "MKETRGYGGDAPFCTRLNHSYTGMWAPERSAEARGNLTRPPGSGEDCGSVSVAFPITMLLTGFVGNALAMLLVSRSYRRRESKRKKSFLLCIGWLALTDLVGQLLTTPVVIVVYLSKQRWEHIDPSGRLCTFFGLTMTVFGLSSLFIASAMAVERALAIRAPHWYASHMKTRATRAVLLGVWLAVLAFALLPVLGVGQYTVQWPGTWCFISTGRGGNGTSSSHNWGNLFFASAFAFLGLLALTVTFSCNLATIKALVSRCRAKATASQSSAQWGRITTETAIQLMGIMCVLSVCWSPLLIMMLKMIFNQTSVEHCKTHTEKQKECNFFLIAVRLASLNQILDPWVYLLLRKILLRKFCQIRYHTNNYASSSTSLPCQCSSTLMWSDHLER", "assay": "Calcium flux of human prostaglandin E2 receptor EP3 subtype", "type": "cell-based", "settings": "CHO-K1-Gα16 cells overexpressing human EP3, activated by prostaglandin E2; read-out: hEP3 Ca^2+ IC50", "description": "as §1, §2"}, "[4]": {"system": "mouse colon cancer cells CT26", "assay": "CT26 subcutaneous tumor-bearing model, Balb/c mice", "type": "in vivo", "settings": "female Balb/c mice, 75 mg/kg/day", "description": "2×10^6 mouse colon cancer cells CT26 were subcutaneously injected into right side of each mouse's back (female Balb/c mouse, 6-8 weeks). The length and width of subcutaneous tumors in the back of mice were measured using vernier calipers, and tumor volume (mm^3)=(length(mm)×width(mm)×width(mm)×n)/6 was calculated. […] The volume of subcutaneous tumors on the back of mice was measured and counted twice a week. Continuous administrated for a period of 14 days and the changes of tumor volumes were recorded.\n(§3) Mouse colon cancer cells MC38, pancreatic cancer cells Pan02, breast cancer cells 4T1, prostate cancer cells RM-1 and colon cancer cells CT26 were cultivated to required amount. Then, cells at a cell density of 5×10^5-2×10^6 were subcutaneously injected into right side of the back of selected female C57BL/6 mice aging 6-8 weeks (MC38, Pan02), male C57BL/6 mice aging 6-8 weeks (RM-1), female Balb/c mice aging 6-8 weeks (4T1, CT26) and female Balb/c nude mice aging 6-8 weeks (CT26). The length and width of subcutaneous tumors in the backs of mice were measured using vernier calipers, and tumor volume(mm^3)=(length(mm)×width(mm)×width(mm)×n)/6 was calculated. […] The volume of subcutaneous tumors on the back of mice was measured and counted 2-4 times a week. Continuous administrated for 12-22 days and the changes of tumor volumes were recorded."}, "[5]": {"system": "mouse colon cancer cells MC38", "assay": "MC38 subcutaneous tumor-bearing model, C57BL/6 mice", "type": "in vivo", "settings": "female C57BL/6 mice, 75 mg/kg/day, 12-22 days, FIG. 4", "source_text": "as §3"}, "[6]": {"system": "pancreatic cancer cells Pan02", "assay": "Pan02 subcutaneous tumor-bearing model, C57BL/6 mice", "type": "in vivo, mouse", "settings": "female C57BL/6 mice, 75 mg/kg/day, 12-22 days, FIG. 4", "source_text": "as §3"}, "[7]": {"system": "breast cancer cells 4T1", "assay": "4T1 subcutaneous tumor-bearing model, Balb/c mice", "type": "in vivo, mouse", "settings": "female Balb/c mice, 75 mg/kg/day, 12-22 days, FIG. 4", "source_text": "as §3"}, "[8]": {"system": "prostate cancer cells RM-1", "assay": "RM-1 subcutaneous tumor-bearing model, C57BL/6 mice", "type": "in vivo, mouse", "settings": "male C57BL/6 mice, 75 mg/kg/day, 12-22 days, FIG. 4", "source_text": "as §3"}, "[9]": {"system": "colon cancer cells CT26", "assay": "CT26 subcutaneous tumor-bearing model, Balb/c nude mice", "type": "in vivo, mouse", "settings": "female Balb/c nude mice, 75 mg/kg/day", "source_text": "as §3"}, "[10]": {"assay": "Cytotoxicity evaluation (CCK8), LLC", "settings": "mouse, LLC lung cancer cells", "procedure": "(§4) Cells with a density of 2000-8000 cells per 100 μL medium were seeded in 96-well plates (Falcon, CA) and incubated for 24 hours, then treated with drugs having different concentration gradient (at least 4 replicates per concentration) and incubated at 37° C. in 5% CO2 incubator for 72 hours. Then cell viability was detected by CCK8 method. That is to say, add 10 μL CCK8 to each well and incubate for 0.33-2 h, and the OD values are read by microplate reader at 450 nm. The inhibition rate on cell survival of compounds with each concentration were calculated.\n(§5) Inhibition rate on cell survival=(OD value of groups with each concentration/OD\n(§6) value of control group)×100%±standard deviation.\n(§7) The IC50 of drugs were calculated using GraphPad Prism 5.0."}, "[11]": {"assay": "Cytotoxicity evaluation (CCK8), 293", "settings": "human"}, "[12]": {"assay": "Cytotoxicity evaluation (CCK8), MOSJ", "settings": "mouse, MOSJ osteosarcoma cells", "procedure": "as §4, §5, §6, §7"}, "[13]": {"assay": "Cytotoxicity evaluation (CCK8), CT26", "settings": "mouse, CT26 intestinal cancer cells", "procedure": "as §4, §5, §6, §7"}, "[14]": {"assay": "Cytotoxicity evaluation (CCK8), EMT-6", "settings": "mouse, EMT-6 breast cancer cells", "procedure": "as §4, §5, §6, §7"}, "[15]": {"assay": "Cytotoxicity evaluation (CCK8), PANC02", "settings": "mouse, PANC02 pancreatic cancer cells", "procedure": "as §4, §5, §6, §7"}}, "data": [{"smiles": "C[C@H](NC(=O)c1c(Cc2ccc(F)cc2)sc2c1CCOC2)c1ccc(C(=O)O)cc1", "note": "[YJ114, (S)-4-(1-(2-(4-fluorobenzyl)-5,7-dihydro-4H-thieno[2,3-c]pyran-3-carboxamido)ethyl)benzoic Acid]", "values": [{"measurement": "IC50", "setting": "[1]", "result": "> 10", "unit": "µM"}, {"measurement": "IC50", "setting": "[2]", "result": "> 10", "unit": "µM"}, {"measurement": "IC50", "setting": "[3]", "result": "> 10", "unit": "µM"}, {"measurement": "Inhibition of growth of colon cancer cells CT26 in subcutaneous tumor-bearing mice", "setting": "[4]; 12 to 22-day administration (Example 6)", "result": "can efficiently inhibit the growth"}, {"measurement": "Inhibitory effect on growth of subcutaneous CT26 colon cancer", "setting": "[4]; 14 days, vs negative control, FIG. 3", "result": "able to suppress the growth"}, {"measurement": "Inhibition of growth of colon cancer cells MC38 in subcutaneous tumor-bearing mice", "setting": "[5]", "result": "can efficiently inhibit the growth"}, {"measurement": "Inhibition of growth of pancreatic cancer cells Pan02 in subcutaneous tumor-bearing mice", "setting": "[6]", "result": "can efficiently inhibit the growth"}, {"measurement": "Inhibition of growth of breast cancer cells 4T1 in subcutaneous tumor-bearing mice", "setting": "[7]", "result": "can efficiently inhibit the growth"}, {"measurement": "Inhibition of growth of prostate cancer cells RM-1 in subcutaneous tumor-bearing mice", "setting": "[8]", "result": "can efficiently inhibit the growth"}, {"measurement": "Inhibition of CT26 tumor growth in Balb/c nude mice with immune system deficiency", "setting": "[9]", "result": "can not inhibit the tumor growth"}, {"measurement": "IC50 at 72 h", "setting": "[10]", "result": "> 100", "unit": "µM"}, {"measurement": "IC50 at 72 h", "setting": "[11]", "result": "> 100", "unit": "µM"}, {"measurement": "IC50 at 72 h", "setting": "[12]", "result": "> 100", "unit": "µM"}, {"measurement": "IC50 at 72 h", "setting": "[13]", "result": "> 100", "unit": "µM"}, {"measurement": "IC50 at 72 h", "setting": "[14]", "result": "> 100", "unit": "µM"}, {"measurement": "IC50 at 72 h", "setting": "[15]", "result": "> 100", "unit": "µM"}]}]}
